Values of other authors as cited in patent US6596714B1, “Parasiticidal formulation for animals and a method of making this formulation” (Phoenix Scientific, Inc., priority 2000, dated 2003).

System: cestode infestations

## CN1CCCN=C1/C=C/c1cccs1 [pyrantel pamoate]
About three times the label recommended dosage, about 19.8 milligrams per kilogram of animal
  Effectiveness in treating cestode infestations: about 100%
Label dosage of about 6.6 milligrams per kilogram of animal, paste formulations, average
  Average efficacy against cestode infestations: about 85%
